Test results reported in BigSolDB 2.1.

Conditions: in water

Question: With `CCCCn1cc[n+](C)c1.F[P-](F)(F)(F)(F)F` as the compound, how does the solubility (mole fraction) (278.75 K) read?
Answer: The solubility (mole fraction) was 0.0009.

Question: What about the solubility (mole fraction) (283.55 K) of the same compound?
Answer: The solubility (mole fraction) was 0.00102.

Question: And the solubility (mole fraction) (289.55 K)?
Answer: Its solubility (mole fraction) is 0.00108.

Question: What about the solubility (mole fraction) (295.95 K) of the same compound?
Answer: The solubility (mole fraction) was 0.00126.

Question: And the solubility (mole fraction) (302.25 K)?
Answer: Its solubility (mole fraction) is 0.00146.

Question: What about the solubility (mole fraction) (310.35 K) of the same compound?
Answer: The solubility (mole fraction) was 0.00171.

Question: And the solubility (mole fraction) (314.95 K)?
Answer: The solubility (mole fraction) was 0.00195.

Question: And the solubility (mole fraction) (319.65 K)?
Answer: Its solubility (mole fraction) is 0.00218.

Question: What about the solubility (mole fraction) (326.65 K) of the same compound?
Answer: Its solubility (mole fraction) is 0.00244.

Question: And the solubility (mole fraction) (333.25 K)?
Answer: The solubility (mole fraction) was 0.0029.

Question: What about the solubility (mole fraction) (338.35 K) of the same compound?
Answer: The solubility (mole fraction) was 0.00339.

Question: What about the solubility (mole fraction) (344.35 K) of the same compound?
Answer: Its solubility (mole fraction) is 0.00371.

Question: And the solubility (mole fraction) (350.85 K)?
Answer: The solubility (mole fraction) was 0.00444.

Question: And the solubility (mole fraction) (357.35 K)?
Answer: Its solubility (mole fraction) is 0.00532.

Question: What about the solubility (mole fraction) (362.15 K) of the same compound?
Answer: The solubility (mole fraction) was 0.00628.

Question: For `CCCCCCn1cc[n+](C)c1.F[P-](F)(F)(F)(F)F`, which solubility (mole fraction) (286.45 K) is on record?
Answer: Its solubility (mole fraction) is 0.000326.

Question: And the solubility (mole fraction) (296.65 K)?
Answer: Its solubility (mole fraction) is 0.00041.

Question: And the solubility (mole fraction) (302.65 K)?
Answer: The solubility (mole fraction) was 0.000448.

Question: And the solubility (mole fraction) (307.85 K)?
Answer: Its solubility (mole fraction) is 0.000503.

Question: And the solubility (mole fraction) (312.95 K)?
Answer: The solubility (mole fraction) was 0.000545.

Question: And the solubility (mole fraction) (319.35 K)?
Answer: Its solubility (mole fraction) is 0.00066.

Question: What about the solubility (mole fraction) (326.35 K) of the same compound?
Answer: Its solubility (mole fraction) is 0.000734.

Question: And the solubility (mole fraction) (331.75 K)?
Answer: Its solubility (mole fraction) is 0.000852.

Question: What about the solubility (mole fraction) (336.15 K) of the same compound?
Answer: Its solubility (mole fraction) is 0.000919.

Question: What about the solubility (mole fraction) (340.25 K) of the same compound?
Answer: The solubility (mole fraction) was 0.00105.

Question: What about the solubility (mole fraction) (345.85 K) of the same compound?
Answer: The solubility (mole fraction) was 0.00113.

Question: And the solubility (mole fraction) (350.75 K)?
Answer: The solubility (mole fraction) was 0.00128.

Question: And the solubility (mole fraction) (355.25 K)?
Answer: The solubility (mole fraction) was 0.00144.

Question: And the solubility (mole fraction) (359.95 K)?
Answer: Its solubility (mole fraction) is 0.00157.

Question: What about the solubility (mole fraction) (363.05 K) of the same compound?
Answer: The solubility (mole fraction) was 0.0018.

Question: Which solubility (mole fraction) (285.85 K) does the source give for `CCCCCCCCn1cc[n+](C)c1.F[P-](F)(F)(F)(F)F` here?
Answer: Its solubility (mole fraction) is 9.4e-05.

Question: And the solubility (mole fraction) (293.95 K)?
Answer: Its solubility (mole fraction) is 0.000116.

Question: And the solubility (mole fraction) (299.05 K)?
Answer: The solubility (mole fraction) was 0.000128.

Question: What about the solubility (mole fraction) (307.35 K) of the same compound?
Answer: Its solubility (mole fraction) is 0.000154.

Question: What about the solubility (mole fraction) (311.35 K) of the same compound?
Answer: The solubility (mole fraction) was 0.000169.

Question: What about the solubility (mole fraction) (318.15 K) of the same compound?
Answer: The solubility (mole fraction) was 0.000197.

Question: What about the solubility (mole fraction) (324.75 K) of the same compound?
Answer: The solubility (mole fraction) was 0.000216.

Question: What about the solubility (mole fraction) (328.15 K) of the same compound?
Answer: The solubility (mole fraction) was 0.000239.

Question: What about the solubility (mole fraction) (331.15 K) of the same compound?
Answer: Its solubility (mole fraction) is 0.000257.

Question: And the solubility (mole fraction) (338.85 K)?
Answer: Its solubility (mole fraction) is 0.000304.

Question: What about the solubility (mole fraction) (343.35 K) of the same compound?
Answer: Its solubility (mole fraction) is 0.000345.

Question: And the solubility (mole fraction) (348.45 K)?
Answer: The solubility (mole fraction) was 0.000383.

Question: What about the solubility (mole fraction) (353.75 K) of the same compound?
Answer: Its solubility (mole fraction) is 0.000445.

Question: What about the solubility (mole fraction) (358.55 K) of the same compound?
Answer: Its solubility (mole fraction) is 0.000505.

Question: What about the solubility (mole fraction) (364.55 K) of the same compound?
Answer: Its solubility (mole fraction) is 0.000574.
